Measurements published in US5770688A, “Method and composition for the treatment of mammalian HIV infection” (GSF-Forschungszentrum fur Umwelt und Gesundheit GmbH, priority 1989, dated 1998).
Entries after “also recorded” stand apart in the source; their conditions may differ.

How the values were obtained:
reverse transcriptase = test: activity of reverse transcriptase in the supernatant of treated, HIV infected cell culture; type: cell-based
Experimental: Referring more particularly to FIGS. 1-4, melittin (Seq. ID NO:1) and its specified analogues were tested for their effect on HIV-infected T-lymphoma cells. In this regard the following cell lines were employed in the testing: KE37-1 (uninfected) and KE37-1/111S (infected with HTLV-111β). These infected cells were incubated for a period of seven days under test conditions at a temperature of 37° C. and in the presence of 5% CO2. A culture medium of RPMI 1640 (GIBCO) was employed and was further supplemented with 10% fetal calf serum which contained approximately 100 units of penicillin, 100μ of streptomycin, and approximately 0.25μ fungizone (Amphotericin B) per milliliter. This equals 1 milliliter of antibiotic-antimycotic solution (GIBCO Catalogue No. 043-05240 per 100 ml. of medium.) After a one week incubation period in the presence of various concentrations of the above-identified substances, which were added fresh daily to the medium, the following tests were carried out with the cultures. A first test was conducted for purposes of determining the relative cell concentration as a function of the number of HIV infected cells present by employing an MTT test. […] The optical density (OD) of the solution was determined at=600 nm. […]

HIV = HIV release from chronically infected cells (Biomek 1000); type: cell-based; details: FIGS. 6-19
Excerpt: A series of experiments and which are illustrated graphically in FIGS. 6 through 34, respectively, were designed to detect two extremes. In particular the tests were designed to detect the inhibition of viral release and/or the release of virus which has a reduced ability to infect other cells. This reduced ability to infect other cells is represented, for example, by glycosylation inhibitors, the direct effect on virus release is represented by acylation inhibitors, RT inhibitors and melittin (Seq. ID NO:1). The most important feature of this experimental design, however, is to detect the toxicity of melittin. The present experiments were carried out on both the astrocytoma cell line LC5-HIV (cloned infected cells) and T-lymphocytoma cell line KE37-1/IIIβ (cloned infected cells with HTLV-IIIβ). In both cases the results were essentially identical.
In the present series of experiments HIV release was tested by a fully automated laboratory robot system and which is manufactured by Beckman Instruments as the Biomek 1000. This system performed the following steps. First, chronically infected cells (cloned) are plated in microtiter plates and grown for a period of seven days. They are then challenged by melittin (Seq. ID NO:1) during this period either for the final day or throughout the period as shown in the figures. The number of living cells are quantified by MTT, that is by a metabolic (dehydrogenase) test. The MTT test is automatically performed. The toxic effect is detected at the time of the experiment and not in a separate control experiment. Furthermore, the supernatant, and which contains released virus cells from the period of time which elapsed from the last wash, and which may vary from 24 hours to 7 days, is collected from the culture, and an aliquot is saved for virus quantification by employing antigen or viral enzyme reverse transcriptase (RT). Furthermore, an aliquot is added to a culture of uninfected cells in microtiter plates for subsequent measurement of the ability of the virus cells to reinfect these uninfected cells. In this regard, the number of infected cells is automatically quantified by an immunoperoxidase staining technique. The test results, as shown, are expressed in terms of toxicity of the melittin (MTT test); the release of HIV from the primary culture (RT test); and the ability of the released virus to infect previously uninfected cells.

In the case of “Gly-Ile-Gly-Ala-Val-Leu-Lys-Val-Leu-Thr-Thr-Gly-Leu-Pro-Ala-Leu-Ile-Ser-Trp-Ile-Lys-Arg-Lys-Arg-Gln-Gln-Amide [melittin]”, the “activity of reverse transcriptase (RT%)” value (reverse transcriptase; 2.5 μg per ml, FIG. 2) is reported as “revert substantially back to zero”, the “activity of reverse transcriptase, in words” value (reverse transcriptase; subtoxic concentrations) is reported as “inhibition of reverse transcriptase” and the “inhibition of viral cell (HIV) release from infected cells, in words” value (HIV) is reported as “inhibition of viral cell release from infected cells; also recorded: inhibited HIV release”.
